# Data taken from patent US20250161297A1, “COMPOSITIONS AND METHODS FOR INHIBITING FSP1” (THE REGENTS OF THE UNIVERSITY OF CALIFORNIA, priority 2022, published 2025).
# Tests used:
# [1] = biological target: T1, NQO1 (Homo sapiens, UniProt P15559); test: NQO1 CoQ oxidoreductase activity assay; type: biochemical
# T1 construct: His6 (N); TEV cleavage site (N); made in house; host or cells: E. coli LOBSTR-BL21 (DE3)
# Experimental: FSP1 and NQO1% Activity Curves: To measure in vitro activity of FSP1 and NQO1 for IC50 calculation, recombinant purified FSP1 and NQO1 were diluted in PBS. FSEN1 was dissolved and diluted in DMSO, and […] FSEN1 and 12.5 μL FSP1/NQO1 were mixed on an orbital shaker for 45 seconds at 450 rpm and incubated for 30 minutes in a NBS polystyrene 384-well plate (Corning Ref: 3640) at RT. NADH (Millipore Cat: 481913) was dissolved and diluted in PBS, and CoQ1 (Sigma-Aldrich SKU: C7956) was dissolved in DMSO and diluted in PBS. Diluted NADH and CoQ1 were combined into a 2×reaction mix and added to the plate wells to start the reaction. Final well volume was 25 μL, and final concentrations were 12.5n M FSP1, 400 µM CoQ1, 500 µM NADH, and 0.01-20 µM FSEN1. NADH Absorbance (355 nm) was measured as an inverse read-out of enzymatic product formation on a kinetic cycle with an interval time of 2.5 minutes at RT. All data was acquired using a Tecan infinite M1000. Raw data from 3 biological replicates were then plotted and initial slopes were calculated using a linear regression in prism (GraphPad), and all rates were normalized to vehicle (0 nM FSEN1) and No Protein controls where the highest and lowest slope values were used as 0 and 100%. […]
# [2] = tested on: H460^C GPX4^KO cells; test: cell-based assay of FSP1 activity, cell death (SYTOX Green/mCherry lethal fraction); details: H460^C GPX4^KO cells; read-out: EC50 for triggering cell death
# Experimental: (§1) For cell-based screen, cells were seeded in triplicate at a density of 500-750 cells per 50 μL per well in black 384-well plates (NUNC) and (Corning) 24 hr before start of imaging. After 24 hr, an additional 50 μL of drug infused medium containing 30 nM SYTOX Green Dead Cell Stain was carefully placed into the wells on top of existing medium. The plates were immediately transferred to an IncuCyte S3 imaging system (Essen Bioscience) enclosed in an incubator set to 37° C. and 5% CO2. One image per well were captured in the phase, green, and red channels every 1.5 or 3 hr over a 24 hr period, and the ratio of SYTOX Green-positive objects (dead cells) to SYTOX Green-positive plus Sg-SAFE mCherry-positive objects (total cells) was quantified using S3 image analysis software (Essen Bioscience). For each treatment condition, the SYTOX-to-′SYTOX+mCherry′-object ratio was plotted against the 24 hr imaging interval, the Area Under the Curve (AUC) was calculated and the average AUC was plotted using Prism (GraphPad). To calculate the half-maximal effective concentration (EC50) values, the AUC curve was fit to a variable slope function comparing response to drug concentration.
# In addition to the in vitro activity assay, an orthogonal cell-based assay of FSP1 activity was also developed. […]
# [3] = tested on: A375 melanoma cells; test: cell death in A375 cells; type: cell-based
# Experimental: as §1, with “concentration. […]” for “concentration.”
# [4] = tested on: H460^C cells; test: DHA- and FINO2-induced cell death with FSEN1 co-treatment; type: cell-based; details: 1 μM FSEN1
# Experimental: as §1
# Synergy experiments: For cell-based synergy experiments, cells were seeded at a density of 750 cells per 25 μL per well in four black 384-well plates (Corning) 24 hr before start of imaging. After 24 hr, an additional 25 μL of drug infused medium containing 30 nM SYTOX Green Dead Cell Stain was carefully placed into the wells on top of existing medium. The plates were immediately transferred to an IncuCyte S3 imaging system (Essen Bioscience) enclosed in an incubator set to 37° C. and 5% CO2. One image per well were captured in the phase, green, and red channels every 4 hr over a 24 hr period, and the ratio of SYTOX Green-positive objects (dead cells) to SYTOX Green-positive plus Sg-SAFE mCherry-positive objects (total cells) was quantified using S3 image analysis software (Essen Bioscience). For each treatment condition, the SYTOX-to-′SYTOX+mCherry′-object ratio was plotted against the 24 hr imaging interval, the Area Under the Curve (AUC) was calculated, and the average AUC was plotted as a function of drug concentration (for example, RSL3) using Prism (GraphPad). To calculate the half-maximal effective concentration (EC50) values, the AUC curve was fit to a variable slope function comparing response to drug concentration.
# T1 sequence (P15559 2-274): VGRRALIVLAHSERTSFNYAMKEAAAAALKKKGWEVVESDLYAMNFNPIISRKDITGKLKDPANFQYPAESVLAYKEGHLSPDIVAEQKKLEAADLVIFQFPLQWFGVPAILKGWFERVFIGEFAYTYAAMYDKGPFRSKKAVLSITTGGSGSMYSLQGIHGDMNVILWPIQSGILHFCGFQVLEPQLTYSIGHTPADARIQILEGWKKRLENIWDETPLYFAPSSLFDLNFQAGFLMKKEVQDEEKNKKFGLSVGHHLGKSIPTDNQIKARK
smiles,measurement,setting,value
COc1ccc(N2CCN(Cc3cn4c(-c5ccc(Br)cc5)nnc4s3)CC2)cc1 [FSEN1],effect on the CoQ oxidoreductase activity of NQO1,[1],no effect
same,EC50,[2],69.4 nM
same,ferroptosis in the absence of an RSL3 co-treatment,[3],induced a small amount of ferroptosis
same,sensitization to cell death induced by DHA and FINO2,[4],strongly sensitized
